Tests used:
Conditions in all cases: incubation time: 72 h
CAL-120 [1] = assay: normalised response (% of control), CellTiter-Glo; higher = more viable cells (100 = DMSO, 0 = benzethonium chloride kill control)
Method in brief: (§1)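 Every value is a normalised signal taken at one concentration of a dilution series. Compound was placed in 384-well plates at 5 concentrations in 10-fold steps over a compound-specific 10,000-fold range, and 20 µl of breast cancer cell suspension was seeded onto it. After 72 h, CellTox Green fluorescence (485/520 nm) was measured first and CellTiter-Glo luminescence second, following 10 min at room temperature. Each plate was scaled to 0.1 % DMSO (100) and a positive kill control (0).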

HCC1143 [2] = assay: as above
Method in brief: as §1

CAL-51 [3] = assay: as above
Method in brief: as §1

MCF-10A [4] = assay: as above
Method in brief: as §1

MDA-MB-231 [5] = assay: as above
Method in brief: as §1

HCC1937 [6] = assay: as above
Method in brief: as §1

BT-549 [7] = assay: as above
Method in brief: as §1

SK-BR-3 = assay: as above
Method in brief: as §1

CAL-85-1 [8] = assay: as above
Method in brief: as §1

BT-474 [9] = assay: as above
Method in brief: as §1

Hs578T [10] = assay: as above
Method in brief: as §1

MFM-223 [11] = assay: as above
Method in brief: as §1

DU-4475 [12] = assay: as above
Method in brief: as §1

MDA-MB-468 [13] = assay: as above
Method in brief: as §1

CAL-148 [14] = assay: as above
Method in brief: as §1

MDA-MB-436 [15] = assay: as above
Method in brief: as §1

HDQ-P1 [16] = assay: as above
Method in brief: as §1

HCC1599 [17] = assay: as above
Method in brief: as §1

MDA-MB-453 [18] = assay: as above
Method in brief: as §1

CAL-120 [19] = assay: normalised response (% of control), CellTox Green; higher = less cell death (100 = DMSO, 0 = benzethonium chloride kill control)
Method in brief: as §1

HCC1143 [20] = assay: as above
Method in brief: as §1

CAL-51 [21] = assay: as above
Method in brief: as §1

MCF-10A [22] = assay: as above
Method in brief: as §1

MDA-MB-231 [23] = assay: as above
Method in brief: as §1

HCC1937 [24] = assay: as above
Method in brief: as §1

BT-549 [25] = assay: as above
Method in brief: as §1

CAL-85-1 [26] = assay: as above
Method in brief: as §1

BT-474 [27] = assay: as above
Method in brief: as §1

Hs578T [28] = assay: as above
Method in brief: as §1

MFM-223 [29] = assay: as above
Method in brief: as §1

DU-4475 [30] = assay: as above
Method in brief: as §1

MDA-MB-468 [31] = assay: as above
Method in brief: as §1

CAL-148 [32] = assay: as above
Method in brief: as §1

MDA-MB-436 [33] = assay: as above
Method in brief: as §1

HDQ-P1 [34] = assay: as above
Method in brief: as §1

HCC1599 [35] = assay: as above
Method in brief: as §1

MDA-MB-453 [36] = assay: as above
Method in brief: as §1

Row | Structure (SMILES) | normalised response (CAL-120 [1]) [%] | normalised response (HCC1143 [2]) [%] | normalised response (CAL-51 [3]) [%] | normalised response (MCF-10A [4]) [%] | normalised response (MDA-MB-231 [5]) [%] | normalised response (HCC1937 [6]) [%] | normalised response (BT-549 [7]) [%] | normalised response (SK-BR-3) [%] | normalised response (CAL-85-1 [8]) [%] | normalised response (BT-474 [9]) [%] | normalised response (Hs578T [10]) [%] | normalised response (MFM-223 [11]) [%] | normalised response (DU-4475 [12]) [%] | normalised response (MDA-MB-468 [13]) [%] | normalised response (CAL-148 [14]) [%] | normalised response (MDA-MB-436 [15]) [%] | normalised response (HDQ-P1 [16]) [%] | normalised response (HCC1599 [17]) [%] | normalised response (MDA-MB-453 [18]) [%] | normalised response (CAL-120 [19]) [%] | normalised response (HCC1143 [20]) [%] | normalised response (CAL-51 [21]) [%] | normalised response (MCF-10A [22]) [%] | normalised response (MDA-MB-231 [23]) [%] | normalised response (HCC1937 [24]) [%] | normalised response (BT-549 [25]) [%] | normalised response (CAL-85-1 [26]) [%] | normalised response (BT-474 [27]) [%] | normalised response (Hs578T [28]) [%] | normalised response (MFM-223 [29]) [%] | normalised response (DU-4475 [30]) [%] | normalised response (MDA-MB-468 [31]) [%] | normalised response (CAL-148 [32]) [%] | normalised response (MDA-MB-436 [33]) [%] | normalised response (HDQ-P1 [34]) [%] | normalised response (HCC1599 [35]) [%] | normalised response (MDA-MB-453 [36]) [%]
1 | Cc1c(Cn2c(C)nc3c(C(=O)O)cc(N4CCOCC4)cc32)cccc1C(F)(F)F (1000 nM) | 99.8 | 103 | 74.1 | 115 | 100 | 94.4 | 75.5 | 106 | 98.1 | 96.2 | 103 | 104 | 95.1 | 80.9 | 101 | 99.5 | 105 | 117 | 93.1 | 109 | 119 | 100 | 110 | 107 | 106 | 111 | 104 | 102 | 105 | 105 | 111 | 125 | 107 | 107 | 115 | 92.3 | 112
2 | CC/C(=C(\c1ccc(O)cc1)c1ccc(OCCN(C)C)cc1)c1ccccc1 [4-hydroxytamoxifen] (1000 nM) | 92.5 | 98.9 | 102 | 98.8 | 97 | 93.9 | 93.6 | 99.2 | 97.2 | 101 | 107 | 95.6 | 98.5 | 91.6 | 102 | 101 | 98.8 | 105 | 102 | 108 | 88.3 | 108 | 103 | 108 | 86.6 | 114 | 120 | 97.7 | 97.2 | 95.9 | 105 | 128 | 57.6 | 93.6 | 97.3 | 95.8 | 111
3 | CCCCC/C=C/C=C1/C(=O)C=C[C@@H]1C/C=C\CCCC(=O)O [15D-PGJ2] (80 nM) | 103 | 104 | 123 | 111 | 101 | 99.1 | 99.1 | 103 | 96.2 | 101 | 107 | 99.9 | 102 | 99.2 | 102 | 98.5 | 99.9 | 88.8 | 96.8 | 108 | 82.5 | 113 | 104 | 86.6 | 123 | 105 | 125 | 98.9 | – | 101 | 110 | 155 | 103 | 116 | 111 | 109 | 113
4 | O=C(Nc1c[nH]nc1-c1nc2ccc(CN3CCOCC3)cc2[nH]1)NC1CC1 [AT9283] (100 nM) | 85 | 84.8 | 69 | 71.8 | 78.8 | 93.8 | 82.1 | 86.4 | 105 | 73.8 | 88.8 | 89.2 | 88.9 | 29.7 | 46.6 | 99 | 96.9 | 102 | 141 | 84.9 | 101 | 71.7 | 70.3 | 14.5 | 85 | 121 | 84.6 | 103 | 94.9 | 103 | 97.6 | 70.7 | 20.3 | 86.7 | 99.6 | 110 | 100
5 | CC(=O)OC[C@H]1O[C@@H]([S-])[C@H](OC(C)=O)[C@@H](OC(C)=O)[C@@H]1OC(C)=O.CCP(CC)CC.[Au+] [Auranofin] (250 nM) | 99.4 | 91.8 | 46.3 | 118 | 101 | 87.4 | 68.9 | 99.8 | 93.2 | 99 | 97.4 | 98.5 | 102 | 18.5 | 101 | 90.7 | 101 | 112 | 90.7 | 107 | 123 | 80.4 | 115 | 125 | 108 | 103 | 120 | 95.5 | 103 | 98.4 | 110 | 79.5 | 107 | 109 | 115 | 104 | 105
6 | O=S(=O)(c1cccc2cnccc12)N1CCCNCC1 [Fasudil] (5000 nM) | 89.4 | 96.3 | 94.9 | 89 | 106 | 105 | 95.9 | 107 | 122 | 96.5 | 99.7 | 102 | 96.8 | 105 | 97.1 | 113 | 101 | 101 | 95.7 | 94.5 | 98.9 | 110 | 83.4 | 97.6 | 109 | 99.9 | 102 | 97.1 | 66 | 94.8 | 99 | 70.9 | 98.2 | 95.3 | 75.7 | 103 | 100
7 | CS(=O)(=O)N1CCN(Cc2cc3nc(-c4cccc5[nH]ncc45)nc(N4CCOCC4)c3s2)CC1 [Pictilisib] (1000 nM) | 64.9 | 68 | 57.4 | 38.4 | 70.5 | 73.9 | 58.7 | 40.4 | 63.5 | 69.4 | 64.3 | 66.5 | 86.5 | 72.9 | 66.3 | 72.7 | 47.1 | 96.1 | 38.6 | 100 | 62.9 | 92.7 | 44.2 | 99.3 | 126 | 125 | – | 97.5 | 108 | 76.8 | 98.3 | 45.4 | 53.4 | 99.6 | 87.1 | 103 | 96.7
8 | c1cc(CN2CCCNCCNCCCNCC2)ccc1CN1CCCNCCNCCCNCC1 [Plerixafor] (1000 nM) | 111 | 97.3 | 111 | 81.8 | 96.9 | 101 | 105 | 80 | 96.1 | 93.7 | 91.4 | 87.3 | 92.1 | 98.1 | 90.4 | 102 | 101 | 102 | 80.1 | 96.6 | – | 89.1 | 86.6 | 82.7 | 54.1 | 107 | 105 | 95.2 | – | 97.4 | 91.8 | 85 | 92.3 | – | 58.5 | 88.8 | 99
9 | CC(C)N(CCCNC(=O)Nc1ccc(C(C)(C)C)cc1)C[C@H]1O[C@@H](n2cc(Br)c3c(N)ncnc32)[C@H](O)[C@@H]1O [SGC0946] (1000 nM) | 100 | 96.5 | 118 | 97.9 | 92.1 | 97.3 | 95.5 | 95.7 | 102 | 103 | 103 | 94 | 98.4 | 86.5 | 91.3 | 93.4 | 102 | 102 | 104 | 95.7 | – | 100 | 107 | 101 | 93.1 | 99.9 | 96.3 | 97.3 | – | 98.4 | 95.8 | 111 | – | 97.8 | 103 | 91.8 | 105
